Measurements taken from patent US8114867B2, “Oxazolidinone antibiotic derivatives” (Actelion Pharmaceuticals Ltd, priority 2007, dated 2012).
≈ marks a conversion by molar mass, not a printed value.

Test system: S. aureus 29213
Experiment: MIC by broth microdilution (NCCLS), S. aureus 29213
Type: cell-based
Conditions: strain S. aureus 29213, cation-adjusted Mueller-Hinton Broth, pH 7.2-7.3; for MIC: Staphylococcus aureus
Protocol: These assays have been performed following the description given in “Methods for dilution Antimicrobial Susceptibility Tests for Bacteria that Grow Aerobically, 4th ed.; Approved standard: NCCLS Document M7-A4; National Committee for Clinical Laboratory Standards: Villanova, Pa., USA, 1997”. Minimal inhibitory concentrations (MICs; mg/l) were determined in cation-adjusted Mueller-Hinton Broth (BBL) by a microdilution method following NCCLS guidelines (National Committee for Clinical Laboratory Standards. Methods for Dilution Antimicrobial Susceptibility). The pH of the test medium was 7.2-7.3.

| Molecule | MIC S. aureus 29213 | MIC [µg/mL] |
| --- | --- | --- |
| 6-((RS)-5-{[(2R,3R)-2,3-dihydroxy-3-(6-methoxy-[1,5]naphthyridin-4-yl)-propylamino]-methyl}-2-oxo-oxazolidin-3-yl)-4H-benzo[1,4]thiazin-3-one and 6-((RS)-5-{[(2S,3S)-2,3-dihydroxy-3-(6-methoxy-[1,5]naphthyridin-4-yl)-propylamino]-methyl}-2-oxo-oxazolidin-3-yl)-4H-benzo[1,4]thiazin-3-one [Example 52] | 0.25 µg/mL | – |
| COc1ccc2nccc(CC(N)CNC[C@@H]3CN(c4ccc5c(c4)NC(=O)CS5)C(=O)O3)c2n1 (mixture of isomers) [Example 89, 6-((R)-5-{[(2RS)-2-amino-3-(6-methoxy-[1,5]naphthyridin-4-yl)-propylamino]-methyl}-2-oxo-oxazolidin-3-yl)-4H-benzo[1,4]thiazin-3-one] | – | 0.125 |
| COc1ccc2ncc(F)c(CN(CCCC3CN(c4ccc5c(c4)NC(=O)CS5)C(=O)O3)C[C@@H](O)CCl)c2n1 (mixture of isomers) [Example 152, 6-((RS)-5-{3-[((R)-3-chloro-2-hydroxy-propyl)-(3-fluoro-6-methoxy-[1,5]naphthyridin-4-ylmethyl)-amino]-propyl}-2-oxo-oxazolidin-3-yl)-4H-benzo[1,4]thiazin-3-one] | – | ≤ 0.063 |
| COc1ccc2nccc(C(=O)CCCCC3CN(c4ccc5c(c4)OCCO5)C(=O)O3)c2n1 (racemic) [Example 63, rac-3-(2,3-dihydro-benzo[1,4]dioxin-6-yl)-5-[5-(6-methoxy-[1,5]naphthyridin-4-yl)-5-oxo-pentyl]-oxazolidin-2-one] | – | ≤ 0.063 |
| COc1ccc2nccc(CCNCCC3CN(c4ccc5c(c4)OCCO5)C(=O)O3)c2n1 (racemic) [Example 72, (rac)-3-(2,3-dihydro-benzo[1,4]dioxin-6-yl)-5-{2-[2-(6-methoxy-[1,5]naphthyridin-4-yl)-ethylamino]-ethyl}-oxazolidin-2-one] | – | ≤ 0.063 |
| COc1cnc2cccc(CN(C)C(=O)CCC3CN(c4ccc5c(c4)OCCO5)C(=O)O3)c2n1 (racemic) [Example 110, rac-3-[3-(2,3-dihydro-benzo[1,4]dioxin-6-yl)-2-oxo-oxazolidin-5-yl]-N-(3-methoxy-quinoxalin-5-ylmethyl)-N-methyl-propionamide] | – | ≤ 0.063 |
| COc1ccc2nccc(CC[C@@H](N)CC[C@@H]3CN(c4ccc5c(c4)OCCO5)C(=O)O3)c2n1 (racemic) [Example 116, (RS)-5-[(RS)-3-amino-5-(6-methoxy-[1,5]naphthyridin-4-yl)-pentyl]-3-(2,3-dihydro-benzo[1,4]dioxin-6-yl)-oxazolidin-2-one] | – | ≤ 0.063 |
| COc1ccc2nccc(COCCCC3CN(c4ccc5c(c4)OCCO5)C(=O)O3)c2c1 (racemic) [Example 120, rac-3-(2,3-dihydro-benzo[1,4]dioxin-6-yl)-5-[3-(6-methoxy-quinolin-4-ylmethoxy)-propyl]-oxazolidin-2-one] | – | 0.125 (≈ 0.277 µM) |
| COc1ccc2nccc(CC[C@@H](O)CC[C@@H]3CN(c4ccc5c(c4)NC(=O)CS5)C(=O)O3)c2n1 (racemic) [Example 122, 6-{(RS)-5-[(RS)-3-hydroxy-5-(6-methoxy-[1,5]naphthyridin-4-yl)-pentyl]-2-oxo-oxazolidin-3-yl}-4H-benzo[1,4]thiazin-3-one] | – | ≤ 0.063 |
| COc1ccc2nccc(CCC[C@@H](O)C[C@@H]3CN(c4ccc5c(c4)OCCO5)C(=O)O3)c2n1 (racemic) [Example 123, (RS)-3-(2,3-dihydro-benzo[1,4]dioxin-6-yl)-5-[(RS)-2-hydroxy-5-(6-methoxy-[1,5]naphthyridin-4-yl)-pentyl]oxazolidin-2-one] | – | ≤ 0.063 |
| COc1ccc2ncc(F)c(CN(CCCC3CN(c4ccc5c(c4)NC(=O)CS5)C(=O)O3)C[C@@H](O)CN(C)C)c2n1 (mixture of isomers) [Example 153, 6-((RS)-5-{3-[((S)-3-dimethylamino-2-hydroxy-propyl)-(3-fluoro-6-methoxy-[1,5]naphthyridin-4-ylmethyl)-amino]-propyl}-2-oxo-oxazolidin-3-yl)-4H-1-benzo[1,4]thiazin-3-one] | ≦0.063 mg/l | – |
